Test results from patent US8299115B2, “Pyrrole-2-carboxamide derivatives as glucokinase activators, their process and pharmaceutical application” (priority 2007, dated 2012).

Legend:
[1] = molecular target: T1, human recombinant glucokinase (Homo sapiens, UniProt P35557); assay: Characterization of partial glucokinase activators: dose-dependent effect on S0.5 of glucokinase for glucose (% ΔS0.5); type: biochemical; conditions: for Emax: % change of S0.5 at saturating compound concentration, read-out: % Emax (with respect to % ΔS0.5); for EC50: sigmoidal fit of % ΔS0.5 vs log compound concentration, read-out: EC50 (with respect to % ΔS0.5)
T1 sequence (P35557 1-465): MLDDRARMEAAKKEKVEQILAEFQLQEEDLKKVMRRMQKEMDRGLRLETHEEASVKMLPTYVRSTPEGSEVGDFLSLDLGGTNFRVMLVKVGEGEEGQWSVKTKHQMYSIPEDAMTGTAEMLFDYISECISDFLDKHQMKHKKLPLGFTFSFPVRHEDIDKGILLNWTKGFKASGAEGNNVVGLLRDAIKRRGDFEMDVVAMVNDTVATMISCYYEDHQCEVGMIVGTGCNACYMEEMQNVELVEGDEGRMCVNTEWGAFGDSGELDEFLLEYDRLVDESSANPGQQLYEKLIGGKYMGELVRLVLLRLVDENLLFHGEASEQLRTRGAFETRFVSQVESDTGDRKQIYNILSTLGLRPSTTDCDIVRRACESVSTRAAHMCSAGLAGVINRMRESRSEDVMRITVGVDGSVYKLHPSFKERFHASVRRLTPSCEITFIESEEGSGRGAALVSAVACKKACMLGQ
Description: (§1) Glucokinase (GK) activity, in vitro, has been measured using a coupled enzymatic assay (Ref: Hariharan et al (1997) Diabetes 46: 11-16). GK catalyzes the first step, the conversion of glucose to glucose-6-phosphate (G6P) in the presence of ATP. G6P in turn is converted by glucose-6-phosphate dehydrogenase (G6PD) to 6-phosphogluconate, a process that requires NAD, resulting in NADH formation. Since the GK-catalyzed step is the rate-limiting step of this coupled enzymatic process, the rate of accumulation of 6-phosphogluconate and NADH is directly proportional to the rate of glucose phosphorylation by GK. The rate of the GK-catalyzed reaction can therefore be measured by monitoring the increase in NADH absorbance at 340 nm.
(§2) The assay is carried out according to the protocol outlined in Hariharan et al (1997), Diabetes 46: 11-16. Briefly, the test compounds are incubated in a reaction mix containing 25 mM HEPES (pH 7.2), 10 mM MgCl2, 100 mM KCl, 5 mM ATP, 2 mM DTT, 0.5 mM NAD, 1 U/ml Leuconostoc mesenteroides G6PD, 0.3 U/ml of purified human recombinant GK, and different concentrations of glucose. Enzymatic activity is calculated from the initial reaction velocity, measured from the change in NADH absorbance as a function of time.
Compounds of interest from the general formula (I) are tested in the in vitro GK enzymatic assay to monitor dose-dependent effect on glucokinase activation (in kinetic mode), as described above, at various glucose concentrations. The maximum efficacy (Emax) and potency (EC50) for the assessment of partial glucokinase activation have been defined in our co-pending application 409/CHE/2007. The same definitions have also been used here. The S0.5 of glucokinase for glucose at different concentration of each compound of interest is calculated from the following modified version of the Michaelis-Menten equation, V=Vmax[S]^n/(S0.5^n+[S]^n), where [S] is the glucose concentration and n is the Hill coefficient (taken as 1.7 to account for the sigmoidal kinetics of glucokinase with respect to glucose). The S0.5 is plotted against the log of the compound concentration. The change in the S0.5 of glucokinase (ΔS0.5) for glucose is calculated by subtracting the S0.5 at each concentration of the compound from the S0.5 in the vehicle control. The ΔS0.5 is then normalized to a percent scale, where the S0.5 in the vehicle control is set to 0% and 0 mM glucose is set to 100%. The % ΔS0.5 is then plotted against the log of the compound concentration. The EC50 of % change in S0.5 is obtained from the sigmoidal fit of the data.

[2] = molecular target: T1, human recombinant glucokinase; assay: Glucokinase activation, coupled enzymatic assay (G6PD/NADH) at 5 mM glucose; type: biochemical; conditions: read-out: EC50 for GK activation at 5 mM glucose
Description: as §1, §2
Compounds described in formula (I), in concentration ranges from 1.0 nM to 500 μM, are tested in the purified human recombinant glucokinase assay described above.
A compound is considered to be a glucokinase activator if it, in its testable range of concentrations, yields a higher rate of glucose phosphorylation than in its absence at a particular glucose concentration, for example at 5 mM glucose.

[3] = cited from earlier work

Row | Emax [1] [%] | EC50 [1] [nM] | EC50 [2] [nM] | Compound | further results
1 |  |  | 430 | CC(C)C(O)c1cc(C(=O)Nc2ncc(F)s2)n(Cc2ccc(S(C)(=O)=O)cc2)c1 (stereo not shown) [Example C8, 4-(1-Hydroxy-2-methyl-propyl)-1-(4-methanesulfonyl-benzyl)-1H-pyrrole-2-carboxylic acid (5-fluoro-thiazol-2-yl)-amide] | 
2 |  |  | 630 | CC(C)C(O)c1cc(C(=O)Nc2ncc(Cl)s2)n(Cc2ccc(F)c(F)c2)c1 (stereo not shown) [Example C2, 1-(3,4-Difluoro-benzyl)-4-(1-hydroxy-2-methyl-propyl)-1H-pyrrole-2-carboxylic acid (5-chloro-thiazol-2-yl)-amide] | 
3 |  |  | 600 | CC(C)C(O)c1cc(C(=O)Nc2nccs2)n(Cc2ccc(S(C)(=O)=O)cc2)c1 (stereo not shown) [Example C6, 4-(1-Hydroxy-2-methyl-propyl)-1-(4-methanesulfonyl-benzyl)-1H-pyrrole-2-carboxylic acid thiazol-2-ylamide] | 
4 |  |  | 300 | CS(=O)(=O)c1ccc(Cc2cc(C(=O)Nc3nc(CC(=O)O)c(Cl)s3)n(Cc3ccc(F)c(F)c3)c2)cc1 [Example E23, (5-Chloro-2-{[1-(3,4-difluoro-benzyl)-4-(4-methanesulfonyl-benzyl)-1H-pyrrole-2-carbonyl]-amino}-thiazol-4-yl)-acetic acid] | 

Continued, compound first:

Row | Compound | Emax [1] [%] | EC50 [1] [nM] | EC50 [2] [nM] | further results
5 | CC(C)Cc1cc(C(=O)Nc2ncc(Cl)s2)n(Cc2ccc(F)c(F)c2)c1 [Example A40, 1-(3,4-Difluoro-benzyl)-4-isobutyl-1H-pyrrole-2-carboxylic acid (5-chloro-thiazol-2-yl)-amide] | 65 | 200 |  | 
6 | CCOC(=O)Cc1nc(NC(=O)c2cc(CC(C)C)cn2Cc2ccc(F)c(F)c2)sc1Cl [Example A116, (5-Chloro-2-{[1-(3,4-difluoro-benzyl)-4-isobutyl-1H-pyrrole-2-carbonyl]-amino}-thiazol-4-yl)-acetic acid ethyl ester] | 70 | 300 |  | 
7 | O=C(Nc1ncc(F)s1)[C@H](CC1CCOCC1)c1ccc(S(=O)(=O)C2CC2)cc1 [PSN-GK1] |  |  |  | hypoglycemic potential ([3]; at higher dose, Fyfe 2007): hypoglycemic potential
8 | CC(C)Cc1cc(C(=O)Nc2ncc(Cl)s2)n(Cc2ccc(F)c(C(F)(F)F)c2)c1 [Example A31, 1-(4-Fluoro-3-trifluoromethyl-benzyl)-4-isobutyl-1H-pyrrole-2-carboxylic acid (5-chloro-thiazol-2-yl)-amide] | 40 | 220 |  | 
9 | Ro-28-1675 [reference compound] |  |  |  | S0.5 of glucokinase for glucose in presence of activator ([1]; drop from approximate 8 mM glucose, enzyme-based in vitro assay): ≤ 1.0 mM; hypoglycemia in animal efficacy models ([3]; Kamata et al 2004): cause hypoglycemia
